Results published in patent US6174909A, “4-aminotetrahydrobenzisoxazole or -isothiazole compounds” (H. Lundbeck A/S, priority 1995, dated 2001).
Where a name gives a salt, the structure may show the parent alone.

Tests used:
[1] = test system: isoniazide induced convulsions in mice; assay: Isoniazid antagonism (antagonism of isoniazide induced convulsions in mice); format: in vivo, mice (male NMRI/BOM); conditions: Mus musculus, sc, 30 min before 300 mg isoniazide s.c., protected = no convulsions within 60 min, log probit analysis
Method: The test is a test for antagonism of isoniazide induced convulsions in mice.
The test substance is given s.c. to mice (male NMRI/BOM, body weight 20-25 g) and 30 min later 300 mg isoniazide is given s.c. Five mice are used per dose and a control group only receiving isoniazide is included. This dose of isoniazide induces intermittent tonic seizures.
The animals are placed individually in Macrolon type II cages and the time when convulsions first occur is recorded. The experiment is stopped after 90 min. The animals that have not had convulsions within 60 min. are recorded as + (protected). The results, i.e. the number of protected mice pr number of tested mice are stated in fractions as follows: 0/5, 1/5 . . . , 5/5.

[2] = test system: GABA uptake in synaptosomes; assay: GABA uptake inhibition in synaptosomes (overall, i.e. neuronal and glial); format: biochemical; conditions: values marked * = Preliminary Data
Method: The inhibition of GABA Uptake was performed by the method described by Falch et. al, Drug Dev. Res., 1990,21, 169-188. By this method the overall, i.e. neuronal and glial, inhibition of GABA uptake is determined.

## CN(CCOC(c1ccc(Cl)cc1)c1ccc(Cl)cc1)C1CCCc2onc(O)c21 (racemic) [Compound 16b, (R,S)-4-[N -[bis (4-chlorophenyl)methyl-2-oxyethyl]-N -methylamino]-3-hydroxy-4,5,6,7-tetrahydro-1,2-benzisoxazole, sodium salt]
[1]
  ED50: 81 µmol/kg
[2]
  IC50: 4.9 µM

## CN(CCOC(c1ccccc1)c1ccccc1)C1CCCc2onc(O)c21 (racemic) [Compound 16c, (R,S)-4-[N-(diphenylmethyl-2-oxyethyl)-N-methylamino]-3-hydroxy-4,5,6,7-tetrahydro-1,2-benzisoxazole, hydrochloride]
[1]
  ED50: 160 µmol/kg
[2]
  IC50: 0.36 µM

## Cc1ccsc1C(=CCCN(C)C1CCCc2onc(O)c21)c1sccc1C (racemic) [Compound 16d, (R,S)-4-[N-(4,4-bis[3-methylthien-2-yl]-3-butenyl)-N-methylamino]-3-hydroxy-4,5,6,7-tetrahydro-1,2-benzisoxazole hydrochloride]
[1]
  ED50: 63 µmol/kg
[2]
  IC50: 0.31 µM

## CN(CCC=C(c1ccccc1)c1ccccc1)C1CCCc2onc(O)c21 (racemic) [Compound 20a, (R,S)-3-Hydroxy-4-[N-(4,4-diphenyl-3-butenyl)methylamino]4,5,6,7-tetrahydro-1,2-benzisoxazole, hydrochloride]
[1]
  ED50: 97 µmol/kg
[2]
  IC50: 0.37 µM

## CNC1CCCc2onc(OCOC(=O)c3c(C)cc(C)cc3C)c21 (racemic) [Compound 31b, (R,S)-4-Methylamino-3-(2,4,6-trimethylbenzoyloxymethyloxy)-4,5,6,7-tetrahydro-1,2-benzisoxazole, hemioxalate]
[1]
  ED50: 55 µmol/kg
[2]
  IC50: 300 µM

## Oc1noc2c1C(NCc1ccccc1)CCC2 (racemic) [Compound 41a, (R,S)-3-Hydroxy-4-benzylamino-4,5,6,7-tetrahydro-1,2-benzisoxazole hydrobromide]
[1]
  ED50: 77 µmol/kg
[2]
  IC50: 140 µM

## Oc1noc2c1C(NCC(c1ccccc1)c1ccccc1)CCC2 (racemic) [Compound 41b, (R,S)-3-Hydroxy-4-(2,2-diphenylethylamino)-4,5,6,7-tetrahydro-1,2-benzisoxazole hydrobromide]
[1]
  ED50: > 190 µmol/kg
[2]
  IC50: 22 µM

## CNC1CCCc2onc(O)c21 (single isomer, unassigned; (+)) [Compound 6c, (+)-3-hydroxy-4-methylamino-4,5,6,7-tetrahydro-1,2-benzisoxazole, hydrobromide]
[1]
  ED50: > 320 µmol/kg
[2]; hydrobromide
  IC50: 42 µM
